According to US10344025B2, “GLS1 inhibitors for treating disease” (Board of Regents, The University of Texas System, priority 2014, dated 2019):

Key:
[1] = target: purified recombinant human GAC (GLS1) (Homo sapiens (Human), UniProt O94925); test: GLS1 Enzymatic Activity Assay (dual-coupled enzymatic assay, resorufin/Amplex UltraRed readout); assay type: biochemical;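 also: glutamate from GAC coupled via glutamate oxidase and peroxidase to resorufin, read as fluorescence (ex 530, em 590 nm) kinetically or at 20 min, four-parameter logistic IC50 fit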
Sequence of purified recombinant human GAC (GLS1) (O94925 other isoform, or with tags, fused parts or gaps): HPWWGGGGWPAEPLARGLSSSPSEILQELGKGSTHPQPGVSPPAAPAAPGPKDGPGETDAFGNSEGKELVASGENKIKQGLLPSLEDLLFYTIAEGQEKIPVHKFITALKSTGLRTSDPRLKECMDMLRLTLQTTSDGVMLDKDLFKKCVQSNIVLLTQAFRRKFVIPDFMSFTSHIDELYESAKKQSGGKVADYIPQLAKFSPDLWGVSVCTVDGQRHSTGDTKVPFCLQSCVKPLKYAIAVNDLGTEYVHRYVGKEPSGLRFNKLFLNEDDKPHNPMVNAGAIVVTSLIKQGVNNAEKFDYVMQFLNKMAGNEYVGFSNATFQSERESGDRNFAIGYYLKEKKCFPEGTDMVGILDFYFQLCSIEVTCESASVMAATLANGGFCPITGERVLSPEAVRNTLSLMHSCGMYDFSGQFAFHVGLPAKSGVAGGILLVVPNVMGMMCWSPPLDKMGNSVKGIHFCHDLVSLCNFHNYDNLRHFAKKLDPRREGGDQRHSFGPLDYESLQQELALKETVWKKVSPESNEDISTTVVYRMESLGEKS

[2] = tested on: A549 cells; test: Proliferation Assay (A549 viability, Cell Titer Fluor, 72 hours); assay type: cell-based; details: Homo sapiens, A549, 72 h
Procedure, shortened: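 A549 cells seeded at 1000 cells/well, rested 24 h, then exposed to compound in 0.5% DMSO for 72 h at 37 °C. Viability read by Cell Titer Fluor fluorescence; IC50 from four-parameter logistic fit.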

Row | Structure (SMILES) | IC50 [1] | EC50 [2]
1 | CNC(=O)c1nnc(CCC(F)Cn2cc(C(=O)NCc3ccccc3)nn2)s1 (stereo not shown) [Example 556, 5-{4-[4-(benzylcarbamoyl)-1H-1,2,3-triazol-1-yl]-3-fluorobutyl}-N-methyl-1,3,4-thiadiazole-2-carboxamide] | 100 to 500 nM | 500 to 5000 nM
2 | O=C(Cc1cccc(OC(F)(F)F)c1)Nc1nnc(CCC(F)Cn2cc(C(=O)NCC3COC3)nn2)s1 (stereo not shown) [Example 558, 1-[2-fluoro-4-(5-{2-[3-(trifluoromethoxy)phenyl]acetamido}-1,3,4-thiadiazol-2-yl)butyl]-N-(oxetan-3-ylmethyl)-1H-1,2,3-triazole-4-carboxamide] | < 100 nM | 500 to 5000 nM
3 | CC(C)(CO)CNC(=O)c1cn(CCCCc2ccc(NC(=O)Cc3cccc(OC(F)(F)F)c3)nn2)nn1 [Example 560, N-(3-hydroxy-2,2-dimethylpropyl)-1-[4-(6-{2-[3-(trifluoromethoxy)phenyl]acetamido}pyridazin-3-yl)butyl]-1H-1,2,3-triazole-4-carboxamide] | < 100 nM | 100 to 500 nM
4 | CNC(=O)c1cn(CC(F)CCc2nnc(C(=O)NCc3cccc(OC(F)(F)F)c3)s2)nn1 (stereo not shown) [Example 561, 5-{3-fluoro-4-[4-(methylcarbamoyl)-1H-1,2,3-triazol-1-yl]butyl}-N-{[3-(trifluoromethoxy)phenyl]methyl}-1,3,4-thiadiazole-2-carboxamide] | < 100 nM | 100 to 500 nM
5 | CNC(=O)c1cn(CC(F)CCc2nnc(C(=O)NCc3cc(OC(F)(F)F)ccc3F)s2)nn1 (stereo not shown) [Example 562, 5-{3-fluoro-4-[4-(methylcarbamoyl)-1H-1,2,3-triazol-1-yl]butyl}-N-{[2-fluoro-5-(trifluoromethoxy)phenyl]methyl}-1,3,4-thiadiazole-2-carboxamide] | < 100 nM | 100 to 500 nM
6 | CNC(=O)c1cn(CCCCc2ccc(NC(=O)Cc3cccc(N4CCCC4)c3)nn2)nn1 [Example 565, N-methyl-1-(4-(6-(2-(3-(pyrrolidin-1-yl)phenyl)acetamido)pyridazin-3-yl)butyl)-1H-1,2,3-triazole-4-carboxamide] | < 100 nM | 100 to 500 nM
7 | O=C(NCc1cccc(OC(F)(F)F)c1)c1cn(CC(F)CCc2nnc(NC(=O)C3CC3)s2)nn1 (stereo not shown) [Example 568, 1-(4-(5-(cyclopropanecarboxamido)-1,3,4-thiadiazol-2-yl)-2-fluorobutyl)-N-(3-(trifluoromethoxy)benzyl)-1H-1,2,3-triazole-4-carboxamide] | < 100 nM | 100 to 500 nM
8 | CNC(=O)c1cn(CC(F)CCc2nnc(C(=O)NCc3ccccn3)s2)nn1 (stereo not shown) [Example 570, 5-(3-fluoro-4-(4-(methylcarbamoyl)-1H-1,2,3-triazol-1-yl)butyl)-N-(pyridin-2-ylmethyl)-1,3,4-thiadiazole-2-carboxamide] | 100 to 500 nM | 500 to 5000 nM
9 | CNC(=O)c1nnc(CCCCc2ccc(NC(=O)Cc3cccc(OC(F)(F)F)c3)nn2)s1 [Example 572, N-methyl-5-(4-(6-(2-(3-(trifluoromethoxy)phenyl)acetamido)pyridazin-3-yl)butyl)-1,3,4-thiadiazole-2-carboxamide] | < 100 nM | 100 to 500 nM
10 | Cn1cnc(CC(=O)Nc2nnc(CCC(F)Cn3cc(C(=O)NCc4cc(OC(F)(F)F)ccc4F)nn3)s2)c1 (stereo not shown) [Example 576, 1-(2-fluoro-4-(5-(2-(1-methyl-1H-imidazol-4-yl)acetamido)-1,3,4-thiadiazol-2-yl)butyl)-N-(2-fluoro-5-(trifluoromethoxy)benzyl)-1H-1,2,3-triazole-4-carboxamide] | < 100 nM | < 100 nM

The next lines start with the values.

Row | IC50 [1] | EC50 [2] | Structure (SMILES)
11 | 500 to 5000 nM | 500 to 5000 nM | CNC(=O)c1nnc(CCC(F)Cn2cc(C(=O)NCc3ccccn3)nn2)s1 (stereo not shown) [Example 557, 5-(3-fluoro-4-{4-[(pyridin-2-ylmethyl)carbamoyl]-1H-1,2,3-triazol-1-yl}butyl)-N-methyl-1,3,4-thiadiazole-2-carboxamide]
12 | < 100 nM | 100 to 500 nM | Cc1ccc(CNC(=O)c2cn(CC(F)CCc3nnc(NC(=O)Cc4cccc(OC(F)(F)F)c4)s3)nn2)cn1 (stereo not shown) [Example 559, 1-[2-fluoro-4-(5-{2-[3-(trifluoromethoxy)phenyl]acetamido}-1,3,4-thiadiazol-2-yl)butyl]-N-[(6-methylpyridin-3-yl)methyl]-1H-1,2,3-triazole-4-carboxamide]
13 | 500 to 5000 nM | 500 to 5000 nM | CNC(=O)c1cn(CC(F)CCc2nnc(C(=O)NCc3ccccc3)s2)nn1 (stereo not shown) [Example 563, N-benzyl-5-{3-fluoro-4-[4-(methylcarbamoyl)-1H-1,2,3-triazol-1-yl]butyl}-1,3,4-thiadiazole-2-carboxamide]
14 | < 100 nM | 500 to 5000 nM | CNC(=O)c1cn(CC(F)CCc2nnc(NC(=O)Cc3ncc(Cl)cc3F)s2)nn1 (stereo not shown) [Example 564, 1-(4-{5-[2-(5-chloro-3-fluoropyridin-2-yl)acetamido]-1,3,4-thiadiazol-2-yl}-2-fluorobutyl)-N-methyl-1H-1,2,3-triazole-4-carboxamide]
15 | < 100 nM | 100 to 500 nM | CC(=O)Nc1nnc(CCC(F)Cn2cc(C(=O)NCc3cccc(OC(F)(F)F)c3)nn2)s1 (stereo not shown) [Example 566, 1-(4-(5-acetamido-1,3,4-thiadiazo1-2-yl)-2-fluorobutyl)-N-(3-(trifluoromethoxy)benzyl)-1H-1,2,3-triazole-4-carboxamide]
16 | < 100 nM | 100 to 500 nM | CC(=O)Nc1nnc(CCC(F)Cn2cc(C(=O)NCc3cc(C(F)(F)F)ccn3)nn2)s1 (stereo not shown) [Example 567, 1-(4-(5-acetamido-1,3,4-thiadiazol-2-yl)-2-fluorobutyl)-N-((4-(trifluoromethyl)pyridin-2-yl)methyl)-1H-1,2,3-triazole-4-carboxamide]
17 | < 100 nM | < 100 nM | O=C(Cc1ccccn1)Nc1nnc(CCC(F)Cn2cc(C(=O)NCc3cncc(C(F)(F)F)c3)nn2)s1 (stereo not shown) [Example 571, 1-(2-fluoro-4-(5-(2-(pyridin-2-yl)acetamido)-1,3,4-thiadiazol-2-yl)butyl)-N-((5-(trifluoromethyl)pyridin-3-yl)methyl)-1H-1,2,3-triazole-4-carboxamide]
18 | < 100 nM | < 100 nM | O=C(Cc1nccs1)Nc1nnc(CCC(F)Cn2cc(C(=O)NCc3cc(OC(F)(F)F)ccc3F)nn2)s1 (stereo not shown) [Example 573, 1-(2-fluoro-4-(5-(2-(thiazol-2-yl)acetamido)-1,3,4-thiadiazol-2-yl)butyl)-N-(2-fluoro-5-(trifluoromethoxy)benzyl)-1H-1,2,3-triazole-4-carboxamide]
19 | < 100 nM | < 100 nM | O=C(NCc1cc(OC(F)(F)F)ccc1F)c1cn(CC(F)CCc2nnc(NC(=O)C3CCCCO3)s2)nn1 (stereo not shown) [Example 574, 1-(2-fluoro-4-(5-(tetrahydro-2H-pyran-2-carboxamido)-1,3,4-thiadiazol-2-yl)butyl)-N-(2-fluoro-5-(trifluoromethoxy)benzyl)-1H-1,2,3-triazole-4-carboxamide]
20 | < 100 nM | 100 to 500 nM | O=C(Cc1ccn[nH]1)Nc1nnc(CCC(F)Cn2cc(C(=O)NCc3cc(OC(F)(F)F)ccc3F)nn2)s1 (stereo not shown) [Example 575, 1-(4-(5-(2-(1H-pyrazol-5-yl)acetamido)-1,3,4-thiadiazol-2-yl)-2-fluorobutyl)-N-(2-fluoro-5-(trifluoromethoxy)benzyl)-1H-1,2,3-triazole-4-carboxamide]
